Patent publication US10669287B2, “Curcumin-boron complex and pharmaceutical containing same” (JAPAN SCIENCE AND TECHNOLOGY AGENCY, priority 2016, dated 2020)
Where two headings read alike, the source gives them in different places.

Legend:
PC 12 cells [1] = experiment: Cytotoxicity under light irradiation, WST-8 cell viability, Test Example 2; assay type: cell-based, rat; conditions: LED 660 nm, 10 mW, 5 minutes, then 48 hours
Experimental: A culture medium for rat adrenal medulla-derived pheochromocytoma PC 12 cells (purchased from RIKEN, Japan) seeded on a poly-D-lysine-coated 96-well plate was replaced with 75 μL of a Dulbecco's modified Eagle's medium containing 0.1% horse serum, and the culture was incubated in a 5% CO2 atmosphere at 37° C. for 1 day, and 25 μL of a phosphate buffer saline (pH 7.4) containing a inventive compound was then added thereto. Thereafter, the mixed solution was incubated under LED irradiation (wavelength: 660 nm, 10 mW) (without light irradiation for dark) at 37° C. for 5 minutes. Further, the cell culture plate containing the reaction solution was incubated in a 5% CO2 atmosphere at 37° C. for 48 hours. Finally, the Cell Count Reagent SF (10 μL: purchased from NACALAI TESQUE, INC.) containing WST-8 was added, and the culture was incubated in a 5% CO2 atmosphere at 37° C. for 3 hours, and thereafter the cell viability was determined from the absorbance at 450 nm (reference wavelength: 655 nm).

Aβ1-42 [2] = target: T1, Aβ1-42 (Homo sapiens, UniProt P05067); experiment: In vitro oxygenation experiment using Aβ1-42 as a substrate (MALDI-TOF MS), Test Example 1; assay type: biochemical; conditions: test compound 1 μM, Aβ1-42 10 μM, 37° C.
T1 construct: phosphate buffer (pH 7.4)/cell culture solution (containing 0.1% horse serum) (1:3) containing Aβ1-42 (10 μM)
Experimental: An in vitro oxygenation experiment using Aβ1-42 as a substrate was conducted to confirm that each of the inventive compounds actually have Aβ oxygenation activity. A test compound (1 μM in each case) was added to phosphate buffer (pH 7.4)/cell culture solution (containing 0.1% horse serum) (1:3) containing Aβ1-42 (10 μM), and incubated under LED irradiation (wavelength: 660 nm, 730 nm) at 37° C., and then the reaction was tracked by using a mass spectrometer (MALDI-TOF MS). The native Aβ1-42 and the Na^+ adduct were mainly observed before light irradiation. After light irradiation, an ion peak indicating the presence of the oxygenated form was observed over time (FIG. 1, FIG. 2).

[3] = Maximum wavelength λmax of photocatalysts; assay type: physicochemical
PC 12 cells [4] = assay type: cell-based
Experimental: Rat pheochromocytoma PC 12 cells were suspended with DMEM containing 5% horse serum and 10% fetal bovine serum, seeded in a poly-D-lysine-coated 96-well plate at a concentration of 10,000 cells per well, and incubated in a 5% carbon dioxide atmosphere at 37° C. for 3 days. After the solvent was removed, the cells were washed with 150 μL of serum-free DMEM, and DMEM (75 μL) containing 0.1% horse serum was added thereto. Thereafter, the 96-well plate was incubated in a 5% carbon dioxide atmosphere at 37° C. for 1 day for use in oxygenation reaction. In oxygenation reaction, the compound E (100 μM dimethyl sulfoxide solution) was added to a phosphate buffer saline containing Aβ (aggregated in advance for 3 hours, 40 μM) and 25 μL of the above cell solution (final concentration of Aβ: 10 μM, final concentration of compound E: 1 μM). The mixture was irradiated with an LED (wavelength: 780 nm) at a distance of approximately 5 cm at 37° C. for 5 minutes. The cells were incubated in a 5% carbon dioxide atmosphere at 37° C. for 48 hours. The cell viability was measured by using the Cell Count Reagent SF (NACALAI TESQUE, INC., Kyoto, Japan) with WST-8 (2-(2-methoxy-4-nitrophenyl)-3-(4-nitrophenyl)-5-(2,4-disulfophenyl)-2H-tetrazolium).
b: LC50 (dark) indicates the toxicity of a compound itself, and LC50 (light) indicates the phototoxicity of a compound. The PC 12 cells were placed in dark or subjected to photocatalytic treatment under light irradiation (wavelength: 660 nm), and incubated at 37° C. for 5 minutes, and then in a 5% carbon dioxide atmosphere at 37° C. for 48 hours, for which the cell viability was analyzed (n=5, mean±SEM).
b: The PC 12 cells were treated together with a photocatalyst (1 μM) at 37° C. for 5 minutes in dark or under light irradiation (wavelength: 780 nm), and thereafter the cell viability was analyzed (n=3, mean±SEM).

Aβ1-42 [5] = target: T1, Aβ1-42; experiment: Degree of oxygenation of pre-aggregated Aβ1-42 (MALDI-TOF MS), Test Example 10; assay type: biochemical; conditions: pre-aggregated Aβ1-42 20 μM, catalyst 2 μM, 37° C., 30 minutes; for Degree of oxygenation (%) of Aβ42 (λ = 660 nm): phosphate buffer pH 7.4, 660 nm; for Degree of oxygenation (%) of Aβ42 (λ = 780 nm): phosphate buffer pH 7.4, 780 nm (14 mW)
Experimental: (§1) Aβ1-42 isopeptide (concentration: 250 μM in 0.1% aqueous solution of trifluoroacetic acid), angiotensin IV (200 μM aqueous solution), Met-enkephalin (200 μM aqueous solution), and somatostatin (200 μM aqueous solution) were added to a phosphate buffer or phosphate buffer saline (pH 7.4) (with 0.1 M aqueous solution of sodium hydroxide, as necessary) so that a final peptide concentration of 20 μM or 40 μM (pH 7.4) was reached. Before being subjected to oxygenation reaction, the Aβ1-42 solution was incubated at 37° C. for 1 to 3 hours. The phosphate buffer containing 40 μM of Aβ was diluted with a Dulbecco's modified Eagle's medium (DMEM, Life Technologies) containing 0.1% horse serum and buffered with 25 mM of 4-(2-hydroxyethyl)-1-piperazineethanesulfonic acid (HEPES).
(§2) Solutions of the compounds with a final concentration of 2 μM were used for evaluation of oxygenation of Aβ1-42. Solutions of the compounds with a final concentration of 5 μM were used for evaluation of peptide selectivity. Each mixture was subjected to light irradiation with an LED (wavelength: 500, 660, or 780 nm) at a distance of approximately 5 to 10 cm at room temperature. A control group without light irradiation was additionally prepared. Reaction was analyzed through monitor analysis with a MALDI-TOF MS. Degree of oxygenation was determined as a ratio: degree of oxygenation (%)=(total of MS intensities for n[O] adducts)/(MS intensity for native+total of MS intensities for n[O] adducts)×100. Aliquots of each reaction solution were desalted with a ZipTip U-C18 (Merck Millipore), as necessary, before mass spectrometry.
a: A phosphate buffer (pH 7.4) solution containing pre-aggregated Aβ1-42 (20 μM, incubated at 37° C. for 3 hours) and a catalyst (2 μM) was subjected to light irradiation (wavelength: 660 nm) at 37° C. for 30 minutes. Thereafter, the reaction mixture was analyzed by using a MALDI-TOF MS.
a: A phosphate buffer (pH 7.4) containing pre-aggregated Aβ1-42 (20 μM, obtained through incubation at 37° C. for 3 hours) and a catalyst (2 μM) were subjected to light irradiation at 780 nm (14 mW) at 37° C. for 30 minutes. The reaction mixture was analyzed by using a MALDI-TOF MS.

[6] = Stability of catalyst in neutral phosphate buffer without or under light irradiation (HPLC), Test Example 5; assay type: physicochemical; conditions: under light irradiation (660 nm)
Experimental: A neutral phosphate buffer containing a catalyst was incubated without light irradiation or under light irradiation (660 nm), and thereafter ethanol containing benzyl alcohol (as an internal standard) was added thereto, and analysis was performed by using HPLC.

Met-enkephalin (ME) = target: T2, Met-enkephalin (ME) (Homo sapiens, UniProt P01210); experiment: Aβ selectivity of oxygenation, Test Example 9; assay type: biochemical; conditions: peptide 20 μM, riboflavin 5 μM, 500 nm, 37° C., 30 minutes
T2 construct: angiotensin-IV (AT4), Met-enkephalin (ME), or somatostatin (Sst) (20 μM in each case)
Experimental: as §1
as §2, with “Each mixture was subjected to light irradiation with an LED (wavelength: 500, 660, or 780 nm) at a distance of approximately 5 to 10 cm at room temperature.” left out

Aβ peptide = target: T3, Aβ peptide (Homo sapiens, UniProt P05067); experiment: Aβ selectivity of oxygenation, Test Example 9; assay type: biochemical; conditions: peptide 20 μM, riboflavin 5 μM, 500 nm, 37° C., 30 minutes
T3 construct: Aβ1-42 isopeptide (concentration: 250 μM in 0.1% aqueous solution of trifluoroacetic acid)
Experimental: as §1
as §2, with “Each mixture was subjected to light irradiation with an LED (wavelength: 500, 660, or 780 nm) at a distance of approximately 5 to 10 cm at room temperature.” left out

angiotensin-IV (AT4) = target: T4, angiotensin-IV (AT4) (Homo sapiens, UniProt P01019); experiment: Aβ selectivity of oxygenation, Test Example 9; assay type: biochemical; conditions: peptide 20 μM, riboflavin 5 μM, 500 nm, 37° C., 30 minutes
T4 construct: angiotensin-IV (AT4), Met-enkephalin (ME), or somatostatin (Sst) (20 μM in each case)
Experimental: as §1
as §2, with “Each mixture was subjected to light irradiation with an LED (wavelength: 500, 660, or 780 nm) at a distance of approximately 5 to 10 cm at room temperature.” left out

somatostatin (Sst) = target: T5, somatostatin (Sst) (Homo sapiens, UniProt P61278); experiment: Aβ selectivity of oxygenation, Test Example 9; assay type: biochemical; conditions: peptide 20 μM, riboflavin 5 μM, 500 nm, 37° C., 30 minutes
T5 construct: angiotensin-IV (AT4), Met-enkephalin (ME), or somatostatin (Sst) (20 μM in each case)
Experimental: as §1
as §2, with “Each mixture was subjected to light irradiation with an LED (wavelength: 500, 660, or 780 nm) at a distance of approximately 5 to 10 cm at room temperature.” left out

Arctic Aβ1-38 = target: T6, Arctic Aβ1-38 (Homo sapiens, UniProt P05067, E693G); assay type: biochemical; conditions: mouse brain lysate, riboflavin, light irradiation
T6 construct: The peak intensity decreased by 36%/53%/74% for Arctic Aβ1-38; from tissue; host or cells: cerebral cortex and hippocampus of App knock-in mouse
Experimental: The brain excised from an eight-month-old App knock-in (App^NL-C-F/NL-C-F) mouse (Alzheimer's model mouse) was separated into the cerebral cortex, the hippocampus, and the residual brain tissues. The cerebral cortex and the hippocampus were homogenized together in a phosphate buffer saline, and the suspension was stored at −80° C. […] At an arbitrary point of time, an arbitrary aliquot of the reaction mixture was diluted with formic acid to a final concentration of 70%, concentrated, and redissolved in a 6 M aqueous solution of urea.

Aβ1-42 [7] = target: T1, Aβ1-42; experiment: Oxygenation under mouse skin, Test Example 7; assay type: in vivo; conditions: microtube with Aβ1-42 20 μM aggregated 3 hours, implanted in back skin, LED 780 nm, 30 minutes
Experimental: A microtube containing a phosphate buffer containing Aβ1-42 (20 μM, aggregated in advance for 3 hours) and the compound E or a compound 3 [9-(6-bromo-3-methyl-1,3-benzotriazol-3-ium-2-yl)-julolidine] was implanted in the back skin of a wild mouse, and light irradiation with an LED lamp was performed from the outside of the mouse body at a wavelength of 780 nm for 30 minutes (FIG. 10). As a control experiment, another microtube containing the same components (Aβ1-42 (20 μM, aggregated in advance for 3 hours) and the compound E or the compound 3) was directly subjected to light irradiation outside of the mouse body. The reaction mixture was analyzed by using a MALDI-TOF MS, and then subjected to ZipTip treatment for analysis. The percentage of oxygenation ratio was calculated from the percentage of oxygenation ratio under the skin and the oxygenation ratio outside of the skin “[oxygenation ratio under mouse skin/oxygenation ratio outside of mouse skin]×100”.

Row | Structure (SMILES) | toxicity under light irradiation (ranking) (PC 12 cells [1]) | Maximum wavelength λmax (nm) ([3]; Table 1) | Degree of oxygenation (%) of Aβ42 (λ = 660 nm) (Aβ1-42 [5]) | stability of catalyst (ranking) [6] | Maximum wavelength λmax (nm) ([3]; Table 2) | Degree of oxygenation (%) of Aβ42 (λ = 780 nm) (Aβ1-42 [5]) [%] | also measured
1 | CN(C)c1ccc(/C=C/C2=C(I)C(/C=C/c3ccc4c(c3)CCCN4CCCCCC(=O)O)=[O+][B-](F)(C(F)(F)F)O2)cc1 (centres unmarked) [M] | iodine provides more reduced toxicity than in the case of bromine |  |  |  |  |  | oxygenation of Aβ1-42 under light irradiation (Aβ1-42 [2]; LED irradiation at 730 nm): oxygenation of the Aβ proceeded
2 | CN(C)c1ccc(/C=C/C2=C(Br)C(/C=C/c3ccc4c(c3)CCCN4CCCCCC(=O)O)=[O+][B-](F)(F)O2)cc1 [Compound L] | higher in the order of the compound J, the compound K, and the compound L | 623 | 73% | stability was the lowest |  |  | CC50 (PC 12 cells [4]): 24 nM
3 | CN(C)c1ccc(/C=C/C2=CC(=C/C=C3C=CC(=[N+](C)C)C=C3)/O[B-](F)(F)O2)cc1 [CRANAD-2, (T-4)-[(1E,6E)-1,7-bis[4-(dimethylamino)phenyl]-1,6-heptadiene-3,5-dionato-κO^3,κO^5]difluoroboron, reference compound] |  | 579 | trace |  |  |  | 
4 | Cc1cc2nc3c(=O)[nH]c(=O)nc-3n(C[C@H](O)[C@H](O)[C@H](O)CO)c2cc1C [riboflavin, reference compound] |  |  |  |  |  |  | yield of oxygenated Met-enkephalin (Met-enkephalin (ME)): 50%; yield of oxygenated Aβ (Aβ peptide): 43%; yield of oxygenated angiotensin-IV (angiotensin-IV (AT4)): 35%; yield of oxygenated somatostatin (somatostatin (Sst)): 60%; consumption of Aβ1-38 (Arctic Aβ1-38): consumed to a significant degree
5 | O=C(O)CCCCCN1CCCc2cc(/C=C/C3=[O+][B-](F)(C(F)(F)F)OC(/C=C/c4cc5c6c(c4)CCCN6CCC5)=C3Br)ccc21 (centres unmarked) [Compound I] |  |  |  | stability was higher | 645 | 52 | CC50 (PC 12 cells [4]; PC 12 cells in dark, 37° C., 5 minutes, n=3, mean±SEM, Table 2, read-out: LC50 (dark)): > 10000 nM; CC50 (PC 12 cells [4]; PC 12 cells, light irradiation 780 nm, 37° C., 5 minutes, n=3, mean±SEM, Table 2, read-out: LC50 (light)): 1670 nM; oxygenation of Aβ1-42 under light irradiation (Aβ1-42 [2]; LED irradiation at both 660 nm and 730 nm): oxygenation of the Aβ proceeded
6 | CN(C)c1ccc(/C=C/C2=C(Br)C(/C=C/c3ccc4c(c3)CCCN4CCCCCC(=O)O)=[O+][B-](F)(C(F)(F)C(F)(F)F)O2)cc1 (centres unmarked) [Compound J] | higher in the order of the compound J, the compound K, and the compound L | 622 | 79% | higher in the order of BFCF3 (compound K)<BFCF2CF3 (compound J) | 620 | 41 | 
7 | O=C(O)CCCCCN1CCCc2cc(/C=C/C3=[O+][B-](F)(C(F)(F)C(F)(F)C(F)(F)F)OC(/C=C/c4cc5c6c(c4)CCCN6CCC5)=C3Br)ccc21 (centres unmarked) [Compound S] |  |  |  |  | 633 | 37 | CC50 (PC 12 cells [4]): > 10000 nM
8 | C[n+]1c2ccc(Br)cc2nn1-c1cc2c3c(c1)CCCN3CCC2 [Compound 3, 9-(6-bromo-3-methyl-1,3-benzotriazol-3-ium-2-yl)-julolidine, reference compound] |  | 456 | trace |  |  |  | percentage of oxygenation ratios [oxygenation ratio under mouse skin/oxygenation ratio outside of mouse skin]×100 (Aβ1-42 [7]): 12%
